From US20240067702A1, “LACTAM-MODIFIED P[…]” (DONGBAO PURPLE STAR (HANGZHOU) BIOPHARMACEUTICAL CO., LTD., priority 2020, published 2024)
Read-outs that look alike come from different tables or passages of the source. *1 amine or outer side, *2 acyl side, *3 side chain or, on linkers, in order; H or OH if unused. Where a SMILES comes first, the peptide text is derived from it. Bridges are numbered along the chain shown (N, C = ends). Side-chain parts run from the residue outwards. [ ]: non-standard residue; d: D form. The star is where a group is joined. C20 diacid = O=C(O)CCCCCCCCCCCCCCCCCCC(=O)*; γGlu = O=C(O)[C@H](CCC(=O)[*:2])N[*:1]; AEEA = NCCOCCOCC(=O)O; Aib = CC(C)(N)C(=O)O

Experiments:
[1] = Kidney homogenate stability (BHS) test; assay type: in vitro ADME; details: normal mouse kidney homogenate, 37° C., read-out: BHS (T1/2 (min))
Description: To study the stability of the test compounds in normal mouse kidney homogenate.
1. Before the experiment, the frozen kidney homogenate was thawed in a 37° C. water bath.
2. Test compounds: 10 mM stock solution was diluted with DMSO to prepare 1 mM intermediate solution;
3. test compounds: 1 mM intermediate solution was diluted with DMSO to prepare 50 μM dosing solution;
4. at each time point (0, 10, 30, 60, 120, 180, 240 min), 100 μL of 4% H3PO4 and 800 μL of stop solution were added to precipitate the protein, and mixed thoroughly.
5. The samples were centrifuged at 4000 rpm for 10 min, and 100 μL of supernatant was taken from each well to the plate. The samples were shaken at 800 rpm for approximately 10 min before submitting for LC-MS/MS test.

[2] = target: T1, GLP-1R (Homo sapiens, UniProt P43220); assay: GLP-1R agonist activity test in vitro (cAMP assay); assay type: cell-based; details: GLP-IR Agonist Activity EC50 (−) 1% HSA, HEK293 host cell; without 1% HSA
T1 construct: host or cells: HEK293
Description: The cell strains were constructed by Shanghai WuXi AppTec.
The test compound was serially diluted 4-fold with 10 points. The initial concentration was 30 μM, and the dilution was completed with Bravo.
1) 100 nL of the compound was transferred to OptiPlate-384 plate using Echo.
7) The GLP-1R/GIPR cell concentration was diluted to 2.0*10^5/mL with the experimental buffer.
8) […] of the diluted cell suspension was transferred into the OptiPlate-384 plate.
9) The diluted cell suspension was incubated at room temperature for 30 minutes.
2) 10 μL of cAMP detection reagent was added.
3) The OptiPlate-384 plate was covered with TopSeal-A film and incubated at room temperature for 60 minutes.
TopSeal-A was removed and read in EnVision.

[3] = Pharmacokinetic evaluation in SD rats; assay type: in vivo; details: rat, 0.048 mg/kg, single SC 0.048 mpk; for half-life: read-out: Half-life T1/2 (converted); for AUC(0-t): read-out: SC Concentration Integral AUC0-72 h; for Cmax: read-out: Maximum Plasma Concentration
Description: To test the pharmacokinetics of compounds in SD rats in vivo
The pharmacokinetic characteristics of the compounds in rodents after subcutaneous injection were tested according to the standard protocol. In the experiment, the candidate compounds were formulated into clear solutions, and a single subcutaneous injection (SC, 0.048 mpk) was given to the rats. The injection vehicle was citrate buffer (20 mM, pH=7). Whole blood was collected and prepared to obtain plasma. Drug concentration was analyzed by LC-MS/MS method, and pharmacokinetic parameters were calculated by Phoenix WinNonlin software.

T1 sequence (P43220 24-463): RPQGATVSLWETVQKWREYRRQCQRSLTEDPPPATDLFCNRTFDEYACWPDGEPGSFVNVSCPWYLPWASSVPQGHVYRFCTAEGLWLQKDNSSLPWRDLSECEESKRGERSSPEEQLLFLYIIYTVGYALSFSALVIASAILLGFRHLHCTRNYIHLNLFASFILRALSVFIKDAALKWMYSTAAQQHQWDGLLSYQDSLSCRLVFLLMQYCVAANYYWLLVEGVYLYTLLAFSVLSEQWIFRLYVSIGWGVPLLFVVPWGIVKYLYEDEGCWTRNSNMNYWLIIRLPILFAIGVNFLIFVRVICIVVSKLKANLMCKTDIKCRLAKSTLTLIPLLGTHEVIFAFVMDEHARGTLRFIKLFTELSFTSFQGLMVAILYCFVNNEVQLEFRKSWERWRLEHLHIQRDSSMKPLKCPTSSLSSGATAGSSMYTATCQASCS

CC[C@H](C)[C@H](NC(=O)[C@H](CC(C)C)NC(=O)[C@H](Cc1c[nH]c2ccccc12)NC(=O)[C@@H]1CCC(=O)NCCCC[C@H](NC(=O)[C@H](CCC(N)=O)NC(=O)[C@H](C)NC(=O)[C@H](CCCCNC(=O)COCCOCCNC(=O)COCCOCCNC(=O)CC[C@H](NC(=O)CC[C@H](NC(=O)CCCCCCCCCCCCCCCCCCC(=O)O)C(=O)O)C(=O)O)NC(=O)[C@H](CCCCN)NC(=O)[C@H](CC(=O)O)NC(=O)[C@H](CC(C)C)NC(=O)C(C)(C)NC(=O)[C@@H](NC(=O)[C@H](CO)NC(=O)[C@H](Cc2ccc(O)cc2)NC(=O)[C@H](CC(=O)O)NC(=O)[C@H](CO)NC(=O)[C@@H](NC(=O)[C@H](Cc2ccccc2)NC(=O)[C@@H](NC(=O)CNC(=O)[C@H](CCC(=O)O)NC(=O)C(C)(C)NC(=O)[C@@H](N)Cc2ccc(O)cc2)[C@@H](C)O)[C@@H](C)O)[C@@H](C)CC)C(=O)N[C@@H](C)C(=O)N[C@@H](Cc2ccccc2)C(=O)N[C@@H](C(C)C)C(=O)N1)C(=O)N[C@@H](C)C(=O)NCC(=O)NCC(=O)N1CCC[C@H]1C(=O)N[C@@H](CO)C(=O)N[C@@H](CO)C(=O)NCC(=O)N[C@@H](C)C(=O)N1CCC[C@H]1C(=O)N1CCC[C@H]1C(=O)N1CCC[C@H]1C(=O)N[C@@H](CO)C(N)=O [WX-002] (H-Y[Aib]EGTFTSDYSI[Aib]LDKK([AEEA-AEEA-γGlu-γGlu-C20 diacid])AQKAFVEWLIAGGPSSGAPPPS-NH2; lactam 20-24)
half-life ([1]; tissue homogenate): 20 min
EC50 [2]: 0.052 nM
half-life ([3]; in vivo): 17 h
AUC(0-t) ([3]; in vivo): 1.32 µM·h
Cmax ([3]; plasma): 14 nM

CC[C@H](C)[C@H](NC(=O)[C@H](CC(C)C)NC(=O)[C@H](Cc1c[nH]c2ccccc12)NC(=O)[C@@H]1CCC(=O)NCCCC[C@H](NC(=O)[C@H](CCC(N)=O)NC(=O)[C@H](C)NC(=O)[C@H](CCCCNC(=O)COCCOCCNC(=O)COCCOCCNC(=O)CC[C@H](NC(=O)CCCCCCCCCCCCCCCCCCC(=O)O)C(=O)O)NC(=O)[C@H](CCCCN)NC(=O)[C@H](CC(=O)O)NC(=O)[C@H](CC(C)C)NC(=O)C(C)(C)NC(=O)[C@@H](NC(=O)[C@H](CO)NC(=O)[C@H](Cc2ccc(O)cc2)NC(=O)[C@H](CC(=O)O)NC(=O)[C@H](CO)NC(=O)[C@@H](NC(=O)[C@H](Cc2ccccc2)NC(=O)[C@@H](NC(=O)CNC(=O)[C@H](CCC(=O)O)NC(=O)C(C)(C)NC(=O)[C@@H](N)Cc2ccc(O)cc2)[C@@H](C)O)[C@@H](C)O)[C@@H](C)CC)C(=O)N[C@@H](CCC(=O)O)C(=O)N[C@@H](Cc2ccccc2)C(=O)N[C@@H](C(C)C)C(=O)N1)C(=O)N[C@@H](C)C(=O)NCC(=O)NCC(=O)N1CCC[C@H]1C(=O)N[C@@H](CO)C(=O)N[C@@H](CO)C(=O)NCC(=O)N[C@@H](C)C(=O)N1CCC[C@H]1C(=O)N1CCC[C@H]1C(=O)N1CCC[C@H]1C(=O)N[C@@H](CO)C(N)=O [WX-005] (H-Y[Aib]EGTFTSDYSI[Aib]LDKK([AEEA-AEEA-γGlu-C20 diacid])AQKEFVEWLIAGGPSSGAPPPS-NH2; lactam 20-24)
half-life [1]: 21 min
EC50 [2]: 0.042 nM
half-life ([3]; plasma): 17 h
Cmax ([3]; plasma): 14 nM
AUC(0-t) ([3]; plasma): 1.33 µM·h

CC[C@H](C)[C@H](NC(=O)[C@H](CC(C)C)NC(=O)[C@H](Cc1c[nH]c2ccccc12)NC(=O)[C@@H]1CCC(=O)NCCCC[C@H](NC(=O)[C@H](CCC(N)=O)NC(=O)[C@H](C)NC(=O)[C@H](CCCCNC(=O)COCCOCCNC(=O)COCCOCCNC(=O)CC[C@H](NC(=O)CCCCCCCCCCCCCCCCCCC(=O)O)C(=O)O)NC(=O)[C@H](CCCCN)NC(=O)[C@H](CC(=O)O)NC(=O)[C@H](CC(C)C)NC(=O)C(C)(C)NC(=O)[C@@H](NC(=O)[C@H](CO)NC(=O)[C@H](Cc2ccc(O)cc2)NC(=O)[C@H](CC(=O)O)NC(=O)[C@H](CO)NC(=O)[C@@H](NC(=O)[C@H](Cc2ccccc2)NC(=O)[C@@H](NC(=O)CNC(=O)[C@H](CCC(=O)O)NC(=O)C(C)(C)NC(=O)[C@@H](N)Cc2ccc(O)cc2)[C@@H](C)O)[C@@H](C)O)[C@@H](C)CC)C(=O)N[C@@H](C)C(=O)N[C@@H](Cc2ccccc2)C(=O)N[C@@H]([C@@H](C)CC)C(=O)N1)C(=O)N[C@@H](C)C(=O)NCC(=O)NCC(=O)N1CCC[C@H]1C(=O)N[C@@H](CO)C(=O)N[C@@H](CO)C(=O)NCC(=O)N[C@@H](C)C(=O)N1CCC[C@H]1C(=O)N1CCC[C@H]1C(=O)N1CCC[C@H]1C(=O)N[C@@H](CO)C(N)=O [WX-006] (H-Y[Aib]EGTFTSDYSI[Aib]LDKK([AEEA-AEEA-γGlu-C20 diacid])AQKAFIEWLIAGGPSSGAPPPS-NH2; lactam 20-24)
half-life [1]: 234 min
EC50 [2]: 0.051 nM
half-life ([3]; plasma): 10 h
Cmax ([3]; plasma): 16 nM
AUC(0-t) ([3]; plasma): 0.846 µM·h
